In patent US20240261250A1 (priority 2020, published 2024):

Tests used:
[1] = test system: SH-SY5Y cells; type: cell-based
[2] = test system: SH-SY5Y cells
[3] = test system: SH-SY5Y cells; type: cell-based; remark: listed apart in the source
[4] = test system: SH-SY5Y cells; type: cell-based; remark: listed apart in the source

## O[C@H]1[C@H](O)[C@@H](O)[C@@H]2O[C@@H]2[C@@H]1O (racemic) [CBE, Conduritol B Epoxide]
[1]
  immunofluorescence intensity of Lyso-tracker: increased significantly
  number of Lyso-tracker labeled positive cells: significantly increased
[2]
  cell viability: significantly inhibited
[3]
  concentration of GlcCer of various side chains in cells: much higher

## CO/C1=C\C(C)=C\[C@@H](C)[C@@H](O)[C@@H](C)C/C(C)=C/C=C/[C@H](OC)[C@@H]([C@@H](C)[C@@H](O)[C@H](C)[C@@]2(O)C[C@@H](O)[C@H](C)[C@@H](C(C)C)O2)OC1=O [Baf-A1, Bafilomycin A1]
[2]
  cell viability: not significantly different
  effect on the protection by PAO (cell viability): decreased the protection effect of PAO

## CCN(CC)CCO[C@H]1CC[C@@]2(C)C(=CC[C@@H]3[C@@H]2CC[C@]2(C)C(=O)CC[C@@H]32)C1 [U18666A]
[4]
  Filipin staining fluorescence intensity: enhanced

## COc1ncc(-c2ccc3nc(N)n(-c4ccc(N5CCOCC5)cc4)c3c2)cc1S(=O)(=O)Nc1ccccc1F [A1, 5-(2-amino-1-(4-(4-morpholinyl)phenyl)-1H-benzimidazol-6-yl)-N-(2-fluorophenyl)-2-methoxy-3-pyridinesulfonamide]
[1]
  Lyso-tracker labeled positive cells: fewer Lyso-tracker labeled positive cells
